Test system: viral and/or fungal and/or bacterial
Settings: no test conditions given

Question: For “1-hexadecanaminium, N,N,N,trimethyl-tricyclo[3.3.1.13,7]decane-2-acetate(1:1) [salt of the invention]”, which “viral and/or fungal and/or bacterial inhibition action” value is on record?
Answer: Its value is “greater than 4 log”.
